{
  "source": "paper PMC2929754",
  "about": "(The Journal of parasitology, 2009)",
  "target": "T. cruzi lipoamide dehydrogenase (TcLipDH) (Trypanosoma cruzi, UniProt P90597)",
  "sequence (P90597 whole entry)": "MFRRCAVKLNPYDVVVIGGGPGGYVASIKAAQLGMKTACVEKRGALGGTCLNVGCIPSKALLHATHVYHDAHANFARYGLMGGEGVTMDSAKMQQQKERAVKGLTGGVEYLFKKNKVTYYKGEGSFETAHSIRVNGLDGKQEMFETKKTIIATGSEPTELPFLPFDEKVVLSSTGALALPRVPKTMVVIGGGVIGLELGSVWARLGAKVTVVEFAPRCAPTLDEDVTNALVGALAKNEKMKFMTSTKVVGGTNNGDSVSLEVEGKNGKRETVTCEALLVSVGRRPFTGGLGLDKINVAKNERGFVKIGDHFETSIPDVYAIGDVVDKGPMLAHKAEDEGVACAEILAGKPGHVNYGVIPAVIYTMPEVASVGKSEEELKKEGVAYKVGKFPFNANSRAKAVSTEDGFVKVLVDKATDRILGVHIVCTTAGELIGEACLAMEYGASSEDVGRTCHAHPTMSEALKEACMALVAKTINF",
  "assay": "Recombinant enzyme kinetics",
  "assay_type": "biochemical",
  "data": [
    {"smiles": "O=C1C(c2ccccc2)=C(c2ccccc2)C(=O)c2ccccc21", "note": "[DPNQ, 2,3-diphenyl-1,4-naphthoquinone]", "values": [
      {"measurement": "Ki", "value": 29, "unit": "µM"}
    ]}
  ]
}
